Source: patent US11185100B2 (priority 2014, dated 2021)
Where a name gives a salt, the structure may show the parent alone. Read-outs that look alike come from different tables or passages of the source.

Target: cat T1R1/T1R3 receptor (Felis catus, UniProt E3UMS2)
Assay: cell-based
Type: cell-based
From the text: Methods: HEK293 cells that stably express T1R3 and inducibly express T1R1 were exposed to nucleotide derivatives alone or in combination with one or more amino acids and/or one or more nucleotides to activate the umami receptor. Activation of the T1R1/T1R3 receptor was detected by a change in intracellular calcium levels using a calcium sensitive fluorescent dye and/or a luminescent reporter system. Cells that express T1R3 but not T1R1 were used as a control. A FLIPR® Tetra or a FlexStation® 3 was used for data capture.

[1] = in the presence of 20 mM alanine, read-out: EC50- with Ala
[2] = threshold amount that activates the receptor, in the presence of 20 mM alanine
[3] = in the presence of 20 mM alanine
[4] = in the presence of 20 mM alanine, relative to response with IMP

| Threshold [2] [mM] | Molecule | Activity | Max resp. (ΔF/F) | Threshold [mM] | Max. resp. % of IMP (hek293 cells) | EC50 [1] [µM] | Activity (+Alanine (20 mM)) | other results |
| --- | --- | --- | --- | --- | --- | --- | --- | --- |
| – | NC(=O)c1ncn(C2OC(COP(=O)(O)O)C(O)C2O)n1 (centres unmarked) [Ribavirin 5′-Monophosphate] | active | 1.5294 ΔF/F | 0.175 | 158.0 % of IMP | 700 | – | – |
| – | Nc1ncnc2c1ncn2[C@H]1CC(OP(=O)(O)O)[C@@H](COP(=O)(O)O)O1 (stereo in doubt) [2′-Deoxyadenosine-3′,5′-O-bisphosphate, 2′-deoxyadenosine-3′, 5′-O-bisphosphate] | active | 0.8 ΔF/F | 0.005 | 76.4 % of IMP | 20 | – | – |
| – | Nc1nc2c(ncn2[C@@H]2O[C@H](COP(=O)(O)OP(=O)(O)O)[C@@H](O)[C@H]2O)c(=O)[nH]1 [Guanosine 5′-diphosphate sodium salt, Guanosine 5′-diphosphate] | active | 1.7550 ΔF/F | 0.050 | 141.2 % of IMP | – | – | EC50 (read-out: EC50- with Ala): 200 µM |
| 0.3 | O=C(Nc1ncnc2c1ncn2[C@@H]1O[C@H](COP(=O)(O)O)[C@@H](O)[C@H]1O)c1ccccc1 | – | – | – | – | – | – | Max resp. (ΔF/F) [3]: 1.1 ΔF/F; Max. resp. % of IMP [4]: 105.6 % of IMP |
| – | O=c1[nH]c(=O)c2ncn([C@@H]3O[C@H](COP(=O)(O)O)[C@@H](O)[C@H]3O)c2[nH]1 [Xanthosine 5′-Monophosphate Disodium Salt] | active | 1.6223 ΔF/F | 0.025 | 167.6 % of IMP | – | – | EC50 (read-out: EC50- with Ala): 100 µM |
| – | Nc1ncnc2c1nc(Cl)n2[C@@H]1O[C@H](COP(=O)(O)O)C(O)C1O (some centres unmarked) [8-Chloroadenosine-5′-O-monophosphate] | – | 0.79 ΔF/F | 0.2 | 63.6 % of IMP | – | active | – |
| – | Nc1nc2c(ncn2[C@H]2O[C@@H](COP(=O)(O)O)[C@H](O)[C@@H]2O)c(=O)[nH]1 (stereo in doubt) [Guanosine monophosphate disodium salt, reference compound] | active | 1.2786 ΔF/F | 0.008 | 132.1 % of IMP | – | – | EC50: 30 µM |
| – | O=P(O)(O)OC[C@H]1O[C@@H](n2cnc3c(Cl)ncnc32)C(O)C1O (some centres unmarked) [6-Chloropurineriboside-5′-O-monophosphate] | active | 1.5325 ΔF/F | 0.0005 | 123.3 % of IMP | 2 | – | – |
| – | CNc1ccccc1C(=O)O[C@@H]1[C@H](O)[C@@H](COP(=O)(O)O)O[C@H]1n1cnc2c(=O)[nH]c(N)nc21 | – | – | – | – | – | active | – |
| – | Nc1nc2c(ncn2[C@@H]2O[C@H](COP(=O)(O)O)[C@@H](O)[C@H]2O)c(=S)[nH]1 [6-thioguanosine-5′-O-monophosphate] | – | – | 0.0002 | – | – | – | – |
| 0.0005 | O=P(O)(O)OC[C@H]1O[C@@H](n2cnc3c(Cl)ncnc32)[C@H](O)[C@@H]1O [6-chloropurineriboside-5′-O-monophosphate] | – | – | – | – | 2 | – | – |
| 0.005 | O=P(O)(O)OC[C@H]1O[C@@H](n2cnc3c(S)ncnc32)[C@H](O)[C@@H]1O [6-Thioinosine Phosphate] | – | – | – | – | 20 | active | Max resp. (ΔF/F) [3]: 1.3875 ΔF/F; Max. resp. % of IMP [4]: 111.7 % of IMP |

| Molecule | Threshold [2] [mM] | Activity | Max resp. (ΔF/F) | Threshold [mM] | Max. resp. % of IMP (hek293 cells) | EC50 [1] [µM] | Activity (+Alanine (20 mM)) | other results |
| --- | --- | --- | --- | --- | --- | --- | --- | --- |
| Nc1ncnc2c1ncn2[C@@H]1O[C@H](COP(O)(O)=S)[C@@H](O)[C@H]1O | 0.003 | – | – | – | – | – | active | – |
| Guanosine 5′-monophosphomorpholidate 4-morpholine-N,N′-dicyclohexylcarboxamidine salt | 0.325 | – | – | – | – | 1300 | active | Max resp. (ΔF/F) [3]: 0.5121 ΔF/F; Max. resp. % of IMP [4]: 52.9 % of IMP |
